Laboratory results as given in the supplement of paper PMC10307832.

What was measured:
Test in all cases: relative viability (nuclei count vs DMSO), 5 days (fraction); higher = more cells survive
[1] = compound: CC1=C(C(=O)N2C=CSC2=N1)CCN3CCC(=C(C4=CC=CC=C4)C5=CC=C(C=C5)F)CC3
Summary of the method: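 Only plates meeting two conditions passed: control CV below 25% and at least one doubling. Lung cancer cell lines, kept overnight at 37 °C in 1536-well plates, were pinned with five library-drug doses (not always all listed) √10 apart on vehicle-anchored plates and grown 5 days without medium change. A one-step fix, permeabilisation and Hoechst stain preceded 4× imaging and MetaXpress nuclear counting. Viability equals treated-well nuclei divided by vehicle-well nuclei, as the median over plates.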

[2] = compound: CC1=C(C(=O)N2C=CSC2=N1)CCN3CCC(=C(C4=CC=CC=C4)C5=CC=C(C=C5)F)CC3 + Cc1cc(Nc2cc(N3CCN(C)CC3)nc(Sc3ccc(NC(=O)C4CC4)cc3)n2)n[nH]1 [Tozasertib] (partner 0.1 µM)
Summary of the method: (§1)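 Lung cancer cell lines in 1536-well plates were dosed by pin tool the day after seeding, either with one drug alone or with a fixed anchor-drug dose plus five library-drug doses (not always all listed) in √10 steps. After 5 days, cells were fixed and their nuclei stained in one step (final 0.05% Triton X-100, 1% formaldehyde, 1 ug/ml Hoechst), then counted on 4× images. Relative viability is the nuclei count in treated wells divided by that in vehicle wells. Values are medians of duplicate plates.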

[3] = compound: CC1=C(C(=O)N2C=CSC2=N1)CCN3CCC(=C(C4=CC=CC=C4)C5=CC=C(C=C5)F)CC3 + COc1cc2c(Oc3ccc(NC(=O)C4(C(=O)Nc5ccc(F)cc5)CC4)cc3F)ccnc2cc1OCCCN1CCOCC1 [Foretinib] (partner 0.25 µM)
Summary of the method: as §1

[4] = compound: CC1=C(C(=O)N2C=CSC2=N1)CCN3CCC(=C(C4=CC=CC=C4)C5=CC=C(C=C5)F)CC3 + Cc1nc(Nc2ncc(C(=O)Nc3c(C)cccc3Cl)s2)cc(N2CCN(CCO)CC2)n1 [Dasatinib] (partner 0.075 µM)
Summary of the method: as §1

[5] = compound: CC1=C(C(=O)N2C=CSC2=N1)CCN3CCC(=C(C4=CC=CC=C4)C5=CC=C(C=C5)F)CC3 + CCNC(=O)c1noc(-c2cc(C(C)C)c(O)cc2O)c1-c1ccc(CN2CCOCC2)cc1 [Luminespib] (partner 0.01 µM)
Summary of the method: as §1

[6] = compound: CC1=C(C(=O)N2C=CSC2=N1)CCN3CCC(=C(C4=CC=CC=C4)C5=CC=C(C=C5)F)CC3 + COc1cccc2cc(-c3nc([C@H]4CC[C@H](C(=O)O)CC4)n4ncnc(N)c34)[nH]c12 [OSI-027] (partner 0.5 µM)
Summary of the method: as §1

[7] = compound: CC1=C(C(=O)N2C=CSC2=N1)CCN3CCC(=C(C4=CC=CC=C4)C5=CC=C(C=C5)F)CC3 + N=C(N)NC(=N)NCCc1ccccc1 [Phenformin] (partner 250 µM)
Summary of the method: as §1

[8] = compound: CC1=C(C(=O)N2C=CSC2=N1)CCN3CCC(=C(C4=CC=CC=C4)C5=CC=C(C=C5)F)CC3 + NC(=O)Nc1cc(-c2cccc(F)c2)sc1C(=O)N[C@H]1CCCNC1 [AZD7762] (partner 0.2 µM)
Summary of the method: as §1

[9] = compound: CC1=C(C(=O)N2C=CSC2=N1)CCN3CCC(=C(C4=CC=CC=C4)C5=CC=C(C=C5)F)CC3 + CS(=O)(=O)N1CCN(Cc2cc3nc(-c4cccc5[nH]ncc45)nc(N4CCOCC4)c3s2)CC1 [Pictilisib] (partner 1 µM)
Summary of the method: as §1

[10] = compound: CC1=C(C(=O)N2C=CSC2=N1)CCN3CCC(=C(C4=CC=CC=C4)C5=CC=C(C=C5)F)CC3 + CS(=O)(=O)CCNCc1ccc(-c2ccc3ncnc(Nc4ccc(OCc5cccc(F)c5)c(Cl)c4)c3c2)o1 [Lapatinib] (partner 2 µM)
Summary of the method: as §1

[11] = compound: CC1=C(C(=O)N2C=CSC2=N1)CCN3CCC(=C(C4=CC=CC=C4)C5=CC=C(C=C5)F)CC3 + C[C@]1(O)C[C@@H](c2nc(-c3ccc4ccc(-c5ccccc5)nc4c3)c3c(N)nccn32)C1 [Linsitinib] (partner 1 µM)
Summary of the method: as §1

[12] = compound: CC1=C(C(=O)N2C=CSC2=N1)CCN3CCC(=C(C4=CC=CC=C4)C5=CC=C(C=C5)F)CC3 + C[C@@H](Oc1cc(-c2cnn(C3CCNCC3)c2)cnc1N)c1c(Cl)ccc(F)c1Cl [Crizotinib] (partner 1 µM)
Summary of the method: as §1

[13] = compound: CC1=C(C(=O)N2C=CSC2=N1)CCN3CCC(=C(C4=CC=CC=C4)C5=CC=C(C=C5)F)CC3 + CC(C)C[C@H](NC(=O)[C@H](Cc1ccccc1)NC(=O)c1cnccn1)B(O)O [Bortezomib] (partner 0.002 µM)
Summary of the method: as §1

[14] = compound: CC1=C(C(=O)N2C=CSC2=N1)CCN3CCC(=C(C4=CC=CC=C4)C5=CC=C(C=C5)F)CC3 + Cc1nc(NC(=O)N2CCC[C@H]2C(N)=O)sc1-c1ccnc(C(C)(C)C(F)(F)F)c1 [Alpelisib] (partner 2 µM)
Summary of the method: as §1

[15] = compound: CC1=C(C(=O)N2C=CSC2=N1)CCN3CCC(=C(C4=CC=CC=C4)C5=CC=C(C=C5)F)CC3 + CC1(C)CCC(c2ccc(Cl)cc2)=C(CN2CCN(c3ccc(C(=O)NS(=O)(=O)c4ccc(N[C@H](CCN5CCOCC5)CSc5ccccc5)c(S(=O)(=O)C(F)(F)F)c4)cc3)CC2)C1 [Navitoclax] (partner 0.5 µM)
Summary of the method: as §1

[16] = compound: CC1=C(C(=O)N2C=CSC2=N1)CCN3CCC(=C(C4=CC=CC=C4)C5=CC=C(C=C5)F)CC3 + O=C(c1cc(Cc2n[nH]c(=O)c3ccccc23)ccc1F)N1CCN(C(=O)C2CC2)CC1 [Olaparib] (partner 8 µM)
Summary of the method: as §1

NCI-H1623
relative viability ([1]; 0.08 µM): 0.887
relative viability ([1]; 0.253 µM): 1.03
relative viability ([1]; 0.8 µM): 1.02
relative viability ([1]; 2.53 µM): 0.96
relative viability ([1]; 8 µM): 0.87
relative viability ([2]; first compound 0.08 µM): 0.466
relative viability ([2]; first compound 0.253 µM): 0.434
relative viability ([2]; first compound 0.8 µM): 0.446
relative viability ([2]; first compound 2.53 µM): 0.475
relative viability ([2]; first compound 8 µM): 0.419
relative viability ([3]; first compound 0.08 µM): 0.632
relative viability ([3]; first compound 0.253 µM): 0.968
relative viability ([3]; first compound 0.8 µM): 0.886
relative viability ([3]; first compound 2.53 µM): 0.819
relative viability ([3]; first compound 8 µM): 0.826
relative viability ([4]; first compound 0.08 µM): 0.473
relative viability ([4]; first compound 0.253 µM): 0.57
relative viability ([4]; first compound 0.8 µM): 0.5
relative viability ([4]; first compound 2.53 µM): 0.536
relative viability ([4]; first compound 8 µM): 0.549
relative viability ([5]; first compound 0.08 µM): 0.563
relative viability ([5]; first compound 0.253 µM): 0.631
relative viability ([5]; first compound 0.8 µM): 0.521
relative viability ([5]; first compound 2.53 µM): 0.472
relative viability ([5]; first compound 8 µM): 0.35
relative viability ([6]; first compound 0.08 µM): 0.416
relative viability ([6]; first compound 0.253 µM): 0.411
relative viability ([6]; first compound 0.8 µM): 0.431
relative viability ([6]; first compound 2.53 µM): 0.436
relative viability ([6]; first compound 8 µM): 0.433
relative viability ([7]; first compound 0.08 µM): 0.706
relative viability ([7]; first compound 0.253 µM): 0.618
relative viability ([7]; first compound 0.8 µM): 0.607
relative viability ([7]; first compound 2.53 µM): 0.564
relative viability ([7]; first compound 8 µM): 0.594

NCI-H1703
relative viability ([1]; 0.08 µM): 1.03
relative viability ([1]; 0.253 µM): 0.821
relative viability ([1]; 0.8 µM): 0.865
relative viability ([1]; 2.53 µM): 1.13
relative viability ([1]; 8 µM): 0.624
relative viability ([3]; first compound 0.08 µM): 0.4
relative viability ([3]; first compound 0.253 µM): 0.415
relative viability ([3]; first compound 0.8 µM): 0.321
relative viability ([3]; first compound 2.53 µM): 0.363
relative viability ([3]; first compound 8 µM): 0.319
relative viability ([8]; first compound 0.08 µM): 0.14
relative viability ([8]; first compound 0.253 µM): 0.139
relative viability ([8]; first compound 0.8 µM): 0.194
relative viability ([8]; first compound 2.53 µM): 0.117
relative viability ([8]; first compound 8 µM): 0.132
relative viability ([9]; first compound 0.08 µM): 0.298
relative viability ([9]; first compound 0.253 µM): 0.248
relative viability ([9]; first compound 0.8 µM): 0.266
relative viability ([9]; first compound 2.53 µM): 0.295
relative viability ([9]; first compound 8 µM): 0.248
relative viability ([10]; first compound 0.08 µM): 1.57
relative viability ([10]; first compound 0.253 µM): 0.717
relative viability ([10]; first compound 0.8 µM): 1.23
relative viability ([10]; first compound 2.53 µM): 1.69
relative viability ([10]; first compound 8 µM): 0.62
relative viability ([11]; first compound 0.08 µM): 1.14
relative viability ([11]; first compound 0.253 µM): 0.819
relative viability ([11]; first compound 0.8 µM): 0.585
relative viability ([11]; first compound 2.53 µM): 0.888
relative viability ([11]; first compound 8 µM): 0.482
relative viability ([12]; first compound 0.08 µM): 0.723
relative viability ([12]; first compound 0.253 µM): 0.55
relative viability ([12]; first compound 0.8 µM): 0.777
relative viability ([12]; first compound 2.53 µM): 0.786
relative viability ([12]; first compound 8 µM): 0.625
relative viability ([13]; first compound 0.08 µM): 0.262
relative viability ([13]; first compound 0.253 µM): 0.316
relative viability ([13]; first compound 0.8 µM): 0.256
relative viability ([13]; first compound 2.53 µM): 0.359
relative viability ([13]; first compound 8 µM): 0.263
relative viability ([14]; first compound 0.08 µM): 0.372
relative viability ([14]; first compound 0.253 µM): 0.316
relative viability ([14]; first compound 0.8 µM): 0.278
relative viability ([14]; first compound 2.53 µM): 0.463
relative viability ([14]; first compound 8 µM): 0.306
relative viability ([15]; first compound 0.08 µM): 1.19
relative viability ([15]; first compound 0.253 µM): 1.13
relative viability ([15]; first compound 0.8 µM): 1.1
relative viability ([15]; first compound 2.53 µM): 1.3
relative viability ([15]; first compound 8 µM): 0.627
relative viability ([16]; first compound 0.08 µM): 0.385
relative viability ([16]; first compound 0.253 µM): 0.334
relative viability ([16]; first compound 0.8 µM): 0.427
relative viability ([16]; first compound 2.53 µM): 0.577
relative viability ([16]; first compound 8 µM): 0.432
